Test results taken from patent publication US12662489B2 (Sitryx Therapeutics Limited, priority 2023, dated 2026).

Assays:
[1] = biological target: T1, MTHFD2 recombinant human enzyme (Homo sapiens, UniProt P13995); experiment: MTHFD2 inhibition assay (NAD(P)H-Glo luminescence); conditions: for MTHFD1/MTHFD2 IC50 ratio: selectivity of MTHFD2 inhibition over MTHFD1, band
T1 sequence (P13995 36-350): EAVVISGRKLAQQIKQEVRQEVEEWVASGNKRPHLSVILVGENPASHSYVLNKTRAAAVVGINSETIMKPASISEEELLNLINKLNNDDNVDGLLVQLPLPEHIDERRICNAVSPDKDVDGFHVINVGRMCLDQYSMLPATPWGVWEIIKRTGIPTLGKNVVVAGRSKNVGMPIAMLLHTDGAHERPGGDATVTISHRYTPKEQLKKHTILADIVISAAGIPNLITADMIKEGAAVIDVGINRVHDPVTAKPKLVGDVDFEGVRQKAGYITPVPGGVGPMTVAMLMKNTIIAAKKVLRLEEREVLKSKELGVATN

[2] = biological target: T2, MTHFD1 recombinant human enzyme (Homo sapiens, UniProt P11586); experiment: MTHFD1 inhibition assay (NAD(P)H-Glo luminescence); conditions: MTHFD1 IC50, recombinant human enzyme 200 nM, NADP, band
T2 sequence (P11586 2-291 limits assumed): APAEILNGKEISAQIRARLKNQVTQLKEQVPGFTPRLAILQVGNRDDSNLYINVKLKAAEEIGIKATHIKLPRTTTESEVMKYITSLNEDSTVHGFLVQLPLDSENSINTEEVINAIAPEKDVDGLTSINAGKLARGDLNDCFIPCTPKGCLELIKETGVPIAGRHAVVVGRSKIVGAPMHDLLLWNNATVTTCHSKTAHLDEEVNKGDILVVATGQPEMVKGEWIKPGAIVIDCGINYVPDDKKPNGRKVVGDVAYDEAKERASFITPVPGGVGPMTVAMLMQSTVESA

| SMILES | IC50 [1] [nM] | MTHFD1/MTHFD2 IC50 ratio [1] | IC50 [2] [nM] |
| --- | --- | --- | --- |
| COC[C@H]1CN(c2cc(C)c3c4c(c(=O)oc3c2C)CN(C(=O)c2ccc(C(=O)NS(=O)(=O)C3(C)CC3)c(OC3C[C@@H]5C[C@@H]5C3)c2F)CC4)CCN1C (stereo partly drawn) [Example 37, 2-(((1R,3r,5S)-bicyclo[3.1.0]hexan-3-yl)oxy)-3-fluoro-4-(8-((R)-3-(methoxymethyl)-4-methylpiperazin-1-yl)-7,10-dimethyl-5-oxo-1,3,4,5-tetrahydro-2H-chromeno[3,4-c]pyridine-3-carbonyl)-N-((1-methylcyclopropyl)sulfonyl)benzamide] | 1 to 10 | F (<3) | 1 to 10 |
| COC[C@H]1CN(c2cc(C)c3c4c(c(=O)oc3c2C)CN(C(=O)c2ccc(C(=O)NS(=O)(=O)C3(C)CC3)c(N(C)C3CCC3)c2F)CC4)CCN1C [Example 38, (R)-2-(cyclobutyl(methyl)amino)-3-fluoro-4-(8-(3-(methoxymethyl)-4-methylpiperazin-1-yl)-7,10-dimethyl-5-oxo-1,3,4,5-tetrahydro-2H-chromeno[3,4-c]pyridine-3-carbonyl)-N-((1-methylcyclopropyl)sulfonyl)benzamide] | 1 to 10 | G (^ 3 to 9.0) | 10 to 100 |
| COC[C@H]1CN(c2cc(C)c3c4c(c(=O)oc3c2C)CN(C(=O)c2ccc(C(=O)NS(=O)(=O)N(C)C)c(N(C)C3CCC3)c2F)CC4)CCN1C [Example 39, (R)-2-(cyclobutyl(methyl)amino)-N-(N,N-dimethylsulfamoyl)-3-fluoro-4-(8-(3-(methoxymethyl)-4-methylpiperazin-1-yl)-7,10-dimethyl-5-oxo-1,3,4,5-tetrahydro-2H-chromeno[3,4-c]pyridine-3-carbonyl)benzamide] | 1 to 10 | G (^ 3 to 9.0) | 10 to 100 |
| COC[C@H]1CN(c2ccc3c4c(c(=O)oc3c2C)CN(C(=O)c2cc(Cl)c(C(=O)NS(=O)(=O)C3(C)CC3)c(N3C5CCC3CC5)c2)CC4)CCN1C [Example 40, (R)-2-(7-azabicyclo[2.2.1]heptan-7-yl)-6-chloro-4-(8-(3-(methoxymethyl)-4-methylpiperazin-1-yl)-7-methyl-5-oxo-1,3,4,5-tetrahydro-2H-chromeno[3,4-c]pyridine-3-carbonyl)-N-((1-methylcyclopropyl)sulfonyl)benzamide] | 1 to 10 | H (>9.0 to 30) | 10 to 100 |
| COC[C@H]1CN(c2cc(C)c3c4c(c(=O)oc3c2C)CN(C(=O)c2ccc(C(=O)NS(=O)(=O)C3(C)CC3)c(OC3CCC3)c2F)CC4)CCN1C [Example 41, (R)-2-cyclobutoxy-3-fluoro-4-(8-(3-(methoxymethyl)-4-methylpiperazin-1-yl)-7,10-dimethyl-5-oxo-1,3,4,5-tetrahydro-2H-chromeno[3,4-c]pyridine-3-carbonyl)-N-((1-methylcyclopropyl)sulfonyl)benzamide] | 1 to 10 | G (^ 3 to 9.0) | 1 to 10 |
| COC[C@H]1CN(c2ccc3c4c(c(=O)oc3c2C)CN(C(=O)c2ccc(C(=O)NS(=O)(=O)C3(C)CC3)c(OC3CCC3)c2F)CC4)CCN1C [Example 42, (R)-2-cyclobutoxy-3-fluoro-4-(8-(3-(methoxymethyl)-4-methylpiperazin-1-yl)-7-methyl-5-oxo-1,3,4,5-tetrahydro-2H-chromeno[3,4-c]pyridine-3-carbonyl)-N-((1-methylcyclopropyl)sulfonyl)benzamide] | 1 to 10 | G (^ 3 to 9.0) | 1 to 10 |
| COC[C@H]1CN(c2cc(C)c3c4c(c(=O)oc3c2C)CN(C(=O)c2ccc(C(=O)NS(=O)(=O)N(C)C)c(OC3CCCC3)c2F)CC4)CCN1C [Example 43, (R)-2-(cyclopentyloxy)-N-(N,N-dimethylsulfamoyl)-3-fluoro-4-(8-(3-(methoxymethyl)-4-methylpiperazin-1-yl)-7,10-dimethyl-5-oxo-1,3,4,5-tetrahydro-2H-chromeno[3,4-c]pyridine-3-carbonyl)benzamide] | 1 to 10 | F (<3) | 1 to 10 |
| COC[C@H]1CN(c2ccc3c4c(c(=O)oc3c2Cl)CN(C(=O)c2ccc(C(=O)NS(=O)(=O)N(C)C)c(OC3CCCC3)c2F)CC4)CCN1C [Example 44, (R)-4-(7-chloro-8-(3-(methoxymethyl)-4-methylpiperazin-1-yl)-5-oxo-1,3,4,5-tetrahydro-2H-chromeno[3,4-c]pyridine-3-carbonyl)-2-(cyclopentyloxy)-N-(N,N-dimethylsulfamoyl)-3-fluorobenzamide] | 1 to 10 | F (<3) | 1 to 10 |
| COC[C@H]1CN(c2cc(C)c3c4c(c(=O)oc3c2C)CN(C(=O)c2ccc(C(=O)NS(=O)(=O)C3(C)CC3)c(N3CC5CC5C3)c2)CC4)CCN1C (stereo partly drawn) [Example 46, 2-(3-azabicyclo[3.1.0]hexan-3-yl)-4-(8-((R)-3-(methoxymethyl)-4-methylpiperazin-1-yl)-7,10-dimethyl-5-oxo-1,3,4,5-tetrahydro-2H-chromeno[3,4-c]pyridine-3-carbonyl)-N-((1-methylcyclopropyl)sulfonyl)benzamide] | 1 to 10 | H (>9.0 to 30) | 10 to 100 |
| COC[C@H]1CN(c2cc(C)c3c4c(c(=O)oc3c2C)CN(C(=O)c2ccc(C(=O)NS(=O)(=O)N(C)C)c(N3CC5CC5C3)c2)CC4)CCN1C (stereo partly drawn) [Example 47, 2-(3-azabicyclo[3.1.0]hexan-3-yl)-N-(N,N-dimethylsulfamoyl)-4-(8-((R)-3-(methoxymethyl)-4-methylpiperazin-1-yl)-7,10-dimethyl-5-oxo-1,3,4,5-tetrahydro-2H-chromeno[3,4-c]pyridine-3-carbonyl)benzamide] | 1 to 10 | G (^ 3 to 9.0) | 1 to 10 |
| COC[C@H]1CN(c2cc(C)c3c4c(c(=O)oc3c2C)CN(C(=O)c2ccc(C(=O)NS(=O)(=O)C3(C)CC3)c(N3C5CCC3CC5)c2)CC4)CCN1C [Example 48, (R)-2-(7-azabicyclo[2.2.1]heptan-7-yl)-4-(8-(3-(methoxymethyl)-4-methylpiperazin-1-yl)-7,10-dimethyl-5-oxo-1,3,4,5-tetrahydro-2H-chromeno[3,4-c]pyridine-3-carbonyl)-N-((1-methylcyclopropyl)sulfonyl)benzamide] | 1 to 10 | F (<3) | 1 to 10 |
| COC[C@H]1CN(c2cc(C)c3c4c(c(=O)oc3c2C)CN(C(=O)c2ccc(C(=O)NS(=O)(=O)N(C)C)c(N3C5CCC3CC5)c2)CC4)CCN1C [Example 49, (R)-2-(7-azabicyclo[2.2.1]heptan-7-yl)-N-(N,N-dimethylsulfamoyl)-4-(8-(3-(methoxymethyl)-4-methylpiperazin-1-yl)-7,10-dimethyl-5-oxo-1,3,4,5-tetrahydro-2H-chromeno[3,4-c]pyridine-3-carbonyl)benzamide] | 1 to 10 | F (<3) | 1 to 10 |
| COC[C@H]1CN(c2cc(C)c3c4c(c(=O)oc3c2C)CN(C(=O)c2ccc(C(=O)NS(=O)(=O)N(C)C)c(OC3CCC3)c2F)CC4)CCN1C [Example 51, (R)-2-cyclobutoxy-N-(N,N-dimethylsulfamoyl)-3-fluoro-4-(8-(3-(methoxymethyl)-4-methylpiperazin-1-yl)-7,10-dimethyl-5-oxo-1,3,4,5-tetrahydro-2H-chromeno[3,4-c]pyridine-3-carbonyl)benzamide] | 1 to 10 | F (<3) | 1 to 10 |
